Laboratory results published in patent US9073855B2, “BCL-2 selective apoptosis-inducing agents for the treatment of cancer and immune diseases” (AbbVie Inc., priority 2008, dated 2015).

Legend:
FL5.12/Bcl-2 cells = assay: FL5.12/Bcl-2 cell viability assay under IL-3 withdrawal (CellTitre Glo); assay type: cell-based, murine; details: Mus musculus, IL-3 withdrawn 48 hrs, then 24 hrs with compound
Summary of the method: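 Bcl-2-overexpressing murine FL5.12 transfectants underwent IL-3 removal for 48 hrs before a 24 hr compound treatment. Cell viability was quantified with CellTitre Glo.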

GST-Bcl-XL = GST-Bcl-XL (Homo sapiens, UniProt Q07817); assay: TR-FRET binding assay, GST-Bcl-XL with F-Bak peptide probe; details: TR-FRET Binding Affinity, GST-Bcl-XL, F-Bak peptide probe
Chain of GST-Bcl-XL (Q07817 whole entry): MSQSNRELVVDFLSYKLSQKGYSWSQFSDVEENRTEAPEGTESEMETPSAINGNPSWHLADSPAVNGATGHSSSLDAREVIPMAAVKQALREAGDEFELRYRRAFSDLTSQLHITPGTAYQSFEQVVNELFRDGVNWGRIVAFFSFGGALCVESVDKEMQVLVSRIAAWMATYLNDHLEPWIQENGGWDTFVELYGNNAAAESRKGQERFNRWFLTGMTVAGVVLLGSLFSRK
Summary of the method: (§1)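 Displacement of a fluorescein-labelled Bak peptide from the GST-tagged protein was followed by time-resolved FRET with a terbium anti-GST donor after 3 h incubation at room temperature. Inhibition constants were calculated with Wang's equation.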

GST-Bcl-2 = GST-Bcl-2 (Homo sapiens, UniProt P10415); assay: TR-FRET binding assay, GST-Bcl-2 with F-Bak peptide probe; details: TR-FRET Binding Affinity, GST-Bcl-2, F-Bak peptide probe
Chain of GST-Bcl-2 (P10415 whole entry): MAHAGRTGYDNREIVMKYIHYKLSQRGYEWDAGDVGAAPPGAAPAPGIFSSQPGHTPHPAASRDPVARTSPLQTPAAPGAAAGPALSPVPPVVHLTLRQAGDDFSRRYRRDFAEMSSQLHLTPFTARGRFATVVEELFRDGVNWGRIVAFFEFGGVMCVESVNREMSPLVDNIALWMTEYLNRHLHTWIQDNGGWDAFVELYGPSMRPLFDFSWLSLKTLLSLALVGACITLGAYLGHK
Summary of the method: as §1

Row | SMILES | EC50 (FL5.12/Bcl-2 cells) | Ki (GST-Bcl-XL) | Ki (GST-Bcl-2)
1 | CC(C)(C)c1ccc(CN2CCN(c3ccc(C(=O)NS(=O)(=O)c4ccc(OCC5CCOCC5)c([N+](=O)[O-])c4)c(Oc4ccc5[nH]ccc5c4)c3)CC2)c(-c2ccc(Cl)cc2)c1 [Example 342, 4-{4-[(5-tert-butyl-4′-chloro-1,1′-biphenyl-2-yl)methyl]piperazin-1-yl}-2-(1H-indol-5-yloxy)-N-{[3-nitro-4-(tetrahydro-2H-pyran-4-ylmethoxy)phenyl]sulfonyl}benzamide] | > 500 nM | > 660 nM | 25.8 nM
2 | CC1(C)CCC(CN2CCN(c3ccc(C(=O)NS(=O)(=O)c4ccc(NCC(F)(F)F)c([N+](=O)[O-])c4)c(Oc4cccc5[nH]ccc45)c3)CC2)=C(c2ccc(Cl)cc2)C1 [Example 343, 4-(4-{[2-(4-chlorophenyl)-4,4-dimethylcyclohex-1-en-1-yl]methyl}piperazin-1-yl)-2-(1H-indol-4-yloxy)-N-({3-nitro-4-[(2,2,2-trifluoroethyl)amino]phenyl}sulfonyl)benzamide] | 54.9 nM | > 660 nM | 0.576 nM
3 | CC1(C)CCC(CN2CCN(c3ccc(C(=O)NS(=O)(=O)c4ccc(NCC(F)(F)F)c([N+](=O)[O-])c4)c(Oc4ccc5[nH]ccc5c4)c3)CC2)=C(c2ccc(Cl)cc2)C1 [Example 344, 4-(4-{[2-(4-chlorophenyl)-4,4-dimethylcyclohex-1-en-1-yl]methyl}piperazin-1-yl)-2-(1H-indol-5-yloxy)-N-({3-nitro-4-[(2,2,2-trifluoroethyl)amino]phenyl}sulfonyl)benzamide] | 71.5 nM | 447 nM | 0.284 nM
4 | CC1(C)CCC(CN2CCN(c3ccc(C(=O)NS(=O)(=O)c4cccc(C(=O)NCC5CCOCC5)c4)c(Oc4ccc5[nH]ccc5c4)c3)CC2)=C(c2ccc(Cl)cc2)C1 [Example 345, 4-(4-{[2-(4-chlorophenyl)-4,4-dimethylcyclohex-1-en-1-yl]methyl}piperazin-1-yl)-2-(1H-indol-5-yloxy)-N-[(3-{[(tetrahydro-2H-pyran-4-ylmethyl)amino]carbonyl}phenyl)sulfonyl]benzamide] | > 500 nM | > 660 nM | 1.15 nM
5 | CC1(C)CCC(CN2CCN(c3ccc(C(=O)NS(=O)(=O)c4ccc(OC[C@H]5COCCO5)c([N+](=O)[O-])c4)c(Oc4ccc5[nH]ccc5c4)c3)CC2)=C(c2ccc(Cl)cc2)C1 [Example 346, 4-(4-{[2-(4-chlorophenyl)-4,4-dimethylcyclohex-1-en-1-yl]methyl}piperazin-1-yl)-N-({4-[(2R)-1,4-dioxan-2-ylmethoxy]-3-nitrophenyl}sulfonyl)-2-(1H-indol-5-yloxy)benzamide] | 17.5 nM | 204 nM | 0.018 nM
6 | CC1(C)CCC(CN2CCN(c3ccc(C(=O)NS(=O)(=O)c4ccc(OC[C@@H]5COCCO5)c([N+](=O)[O-])c4)c(Oc4ccc5[nH]ccc5c4)c3)CC2)=C(c2ccc(Cl)cc2)C1 [Example 347, 4-(4-{[2-(4-chlorophenyl)-4,4-dimethylcyclohex-1-en-1-yl]methyl}piperazin-1-yl)-N-({4-[(2S)-1,4-dioxan-2-ylmethoxy]-3-nitrophenyl}sulfonyl)-2-(1H-indol-5-yloxy)benzamide] | 46.8 nM | 306 nM | 0.243 nM
7 | CC1(C)CCC(CN2CCN(c3ccc(C(=O)NS(=O)(=O)c4ccc(NCCCN5CCOCC5)c(S(=O)(=O)C(F)(F)F)c4)c(Oc4ccc5[nH]ccc5c4)c3)CC2)=C(c2ccc(Cl)cc2)C1 [Example 348, 4-(4-{[2-(4-chlorophenyl)-4,4-dimethylcyclohex-1-en-1-yl]methyl}piperazin-1-yl)-2-(1H-indol-5-yloxy)-N-({4-[(3-morpholin-4-ylpropyl)amino]-3-[(trifluoromethyl)sulfonyl]phenyl}sulfonyl)benzamide] | 87.2 nM | 29.3 nM | 0.302 nM
8 | CC1(C)CCC(CN2CCN(c3ccc(C(=O)NS(=O)(=O)c4ccc(NCCCN5CCOCC5)c(S(=O)(=O)C(F)(F)F)c4)c(Oc4cccc5[nH]ccc45)c3)CC2)=C(c2ccc(Cl)cc2)C1 [Example 349, 4-(4-{[2-(4-chlorophenyl)-4,4-dimethylcyclohex-1-en-1-yl]methyl}piperazin-1-yl)-2-(1H-indol-4-yloxy)-N-({4-[(3-morpholin-4-ylpropyl)amino]-3-[(trifluoromethyl)sulfonyl]phenyl}sulfonyl)benzamide] | 146 nM | 24.2 nM | 0.467 nM
9 | CC1(C)CCC(CN2CCN(c3ccc(C(=O)NS(=O)(=O)c4cnc(NCC5CCOCC5)c(Br)c4)c(Oc4ccc5[nH]ccc5c4)c3)CC2)=C(c2ccc(Cl)cc2)C1 [Example 350, N-({5-bromo-6-[(tetrahydro-2H-pyran-4-ylmethyl)amino]pyridin-3-yl}sulfonyl)-4-(4-{[2-(4-chlorophenyl)-4,4-dimethylcyclohex-1-en-1-yl]methyl}piperazin-1-yl)-2-(1H-indol-5-yloxy)benzamide] | 311 nM | > 660 nM | 5.97 nM
10 | CC1(C)CCC(CN2CCN(c3ccc(C(=O)NS(=O)(=O)c4ccc(NCCN5CCOCC5)c(S(=O)(=O)C(F)(F)F)c4)c(Oc4ccc5[nH]ccc5c4)c3)CC2)=C(c2ccc(Cl)cc2)C1 [Example 351, 4-(4-{[2-(4-chlorophenyl)-4,4-dimethylcyclohex-1-en-1-yl]methyl}piperazin-1-yl)-2-(1H-indol-5-yloxy)-N-({4-[(2-morpholin-4-ylethyl)amino]-3-[(trifluoromethyl)sulfonyl]phenyl}sulfonyl)benzamide] | 345 nM | > 660 nM | 1.58 nM
11 | CC1(C)CCC(CN2CCN(c3ccc(C(=O)NS(=O)(=O)c4cnc(NCC5CCOCC5)c(C#N)c4)c(Oc4ccc5[nH]ccc5c4)c3)CC2)=C(c2ccc(Cl)cc2)C1 [Example 352, 4-(4-{[2-(4-chlorophenyl)-4,4-dimethylcyclohex-1-en-1-yl]methyl}piperazin-1-yl)-N-({5-cyano-6-[(tetrahydro-2H-pyran-4-ylmethyl)amino]pyridin-3-yl}sulfonyl)-2-(1H-indol-5-yloxy)benzamide] | 156 nM | > 660 nM | 6.82 nM
12 | CN1CCC(Oc2ccc(S(=O)(=O)NC(=O)c3ccc(N4CCN(CC5=C(c6ccc(Cl)cc6)CC(C)(C)CC5)CC4)cc3Oc3ccc4[nH]ccc4c3)cc2[N+](=O)[O-])CC1 [Example 353, 4-(4-{[2-(4-chlorophenyl)-4,4-dimethylcyclohex-1-en-1-yl]methyl}piperazin-1-yl)-2-(1H-indol-5-yloxy)-N-({4-[(1-methylpiperidin-4-yl)oxy]-3-nitrophenyl}sulfonyl)benzamide] | 58.3 nM | > 660 nM | 0.292 nM
13 | CN1CCC(COc2ccc(S(=O)(=O)NC(=O)c3ccc(N4CCN(CC5=C(c6ccc(Cl)cc6)CC(C)(C)CC5)CC4)cc3Oc3ccc4[nH]ccc4c3)cc2[N+](=O)[O-])CC1 [Example 354, 4-(4-{[2-(4-chlorophenyl)-4,4-dimethylcyclohex-1-en-1-yl]methyl}piperazin-1-yl)-2-(1H-indol-5-yloxy)-N-({4-[(1-methylpiperidin-4-yl)methoxy]-3-nitrophenyl}sulfonyl)benzamide] | 5.6 nM | 5.41 nM | 0.036 nM
14 | O=C(NS(=O)(=O)c1ccc(NCC2CCOCC2)c([N+](=O)[O-])c1)c1ccc(N2CCN(CC3=C(c4ccc(Cl)cc4)CCN(CCCO)C3)CC2)cc1Oc1cccc2[nH]ccc12 [Example 355, 4-(4-{[4-(4-chlorophenyl)-1-(3-hydroxypropyl)-1,2,5,6-tetrahydropyridin-3-yl]methyl}piperazin-1-yl)-2-(1H-indol-4-yloxy)-N-({3-nitro-4-[(tetrahydro-2H-pyran-4-ylmethyl)amino]phenyl}sulfonyl)benzamide] | > 500 nM | > 660 nM | 0.12 nM
15 | CC1(C)CCC(CN2CCN(c3ccc(C(=O)NS(=O)(=O)c4ccc(NCC5CCN(C(=O)OCc6ccccc6)CC5)c([N+](=O)[O-])c4)c(Oc4ccc5[nH]ccc5c4)c3)CC2)=C(c2ccc(Cl)cc2)C1 [Example 356, benzyl 4-({[4-({[4-(4-{[2-(4-chlorophenyl)-4,4-dimethylcyclohex-1-en-1-yl]methyl}piperazin-1-yl)-2-(1H-indol-5-yloxy)benzoyl]amino}sulfonyl)-2-nitrophenyl]amino}methyl)piperidine-1-carboxylate] | > 500 nM | > 660 nM | 5.02 nM
16 | CC1(C)CCC(CN2CCN(c3ccc(C(=O)NS(=O)(=O)c4ccc(OCC5CCOCC5)c(C(N)=O)c4)c(Oc4ccc5[nH]ccc5c4)c3)CC2)=C(c2ccc(Cl)cc2)C1 [Example 357, N-{[3-(aminocarbonyl)-4-(tetrahydro-2H-pyran-4-ylmethoxy)phenyl]sulfonyl}-4-(4-{[2-(4-chlorophenyl)-4,4-dimethylcyclohex-1-en-1-yl]methyl}piperazin-1-yl)-2-(1H-indol-5-yloxy)benzamide] | > 500 nM | > 660 nM | 1.34 nM
17 | O=C(NS(=O)(=O)c1ccc(NC2CCN(C3CCOCC3)CC2)c([N+](=O)[O-])c1)c1ccc(N2CCN(Cc3ccc(C(F)(F)F)cc3-c3ccc(Cl)cc3)CC2)cc1Oc1ccc2[nH]ccc2c1 [Example 358, 4-(4-{[4′-chloro-5-(trifluoromethyl)-1,1′-biphenyl-2-yl]methyl}piperazin-1-yl)-2-(1H-indol-5-yloxy)-N-({3-nitro-4-[(1-tetrahydro-2H-pyran-4-ylpiperidin-4-yl)amino]phenyl}sulfonyl)benzamide] | > 500 nM | > 660 nM | 5.42 nM
